Assay results published in patent US10195185B2, “3-(1H-imidazo[4,5-C]pyridin-2-yl)-1H-pyrazolo[4,3-B]pyridines and therapeutic uses thereof” (Samumed, LLC, priority 2015, dated 2019).

Columns and labels:
Assay type in all cases: cell-based
[1] = system: Wnt activity (Wnt-responsive human Sp5 promoter, TCF/LEF binding sites) in SW480 colon carcinoma cells; assay: Wnt activity screening assay: Sp5-Luc luciferase reporter gene in SW480 cells; conditions: for EC50: 10-point dose-response from 10 μM, incubated overnight; for inhibition at 10 µM: given for EC50 of >10 μM, read-out: percent inhibition at 10 μM
Outline: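 Wnt-driven firefly luciferase in SW480 colon carcinoma cells reports pathway activity after overnight compound exposure (10 μM top concentration, 3-fold steps). Signal is normalized to DMSO controls.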

SW480 colon cancer cells = assay: Cell viability assay (CellTiter-Blue), four days; conditions: Homo sapiens, 96 h; for inhibition at 10 µM: read-out: percent inhibition at 10 μM (given for EC50 of >10 μM); for EC50: CellTiter-Blue cell viability
Outline: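 SW480 cells (~2×10^3 per well) were exposed to compound for four days at 37 °C/5% CO2, using 8-point 1:3 dilutions from 10 μM to 0.0045 μM in duplicate. Viability was read by resazurin reduction (CellTiter-Blue, ~3 h, Ex 560/Em 590 nm). EC50 came from non-linear regression; above 10 μM, percent inhibition at 10 μM is given.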

[2] = system: IL-6 in human monocyte cell line (THP-1 cells); assay: IL-6 inhibition in LPS-stimulated THP-1 cells (HTRF); conditions: IL-6 in LPS-stimulated THP-1 cells; for EC50: HTRF; for inhibition at 10 µM: read-out: percent inhibition in brackets beside EC50 >10 μM
Outline: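 THP-1 cells, serum-reduced (1% FBS) for 24 h, were preincubated with compound (10-point 1:3 series from 10 μM, 0.1% DMSO) for 2 h, then stimulated with 500 ng/mL LPS for 22 h at 37° C. IL-6 was read by HTRF (665/620 nm ratio) and normalized to DMSO. EC50 from four-parameter fit; % inhibition at 10 μM given if EC50 >10 μM.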

SMILES | EC50 [1] [µM] | inhibition at 10 µM [1] [%] | inhibition at 10 µM (SW480 colon cancer cells) [%] | EC50 (SW480 colon cancer cells) [µM] | EC50 [2] [µM] | inhibition at 10 µM [2] [%]
CN1CCN(c2nccc3[nH]c(-c4n[nH]c5ccc(-c6cnccn6)nc45)nc23)CC1 [Compound 648, 3-(4-(4-Methylpiperazin-1-yl)-1H-imidazo[4,5-c]pyridin-2-yl)-5-(pyrazin-2-yl)-1H-pyrazolo[4,3-b]pyridine] | > 10 | 1 | 5.4 | > 10 | 0.998 | –
c1cc(-c2ccc3[nH]nc(-c4nc5c(-c6ccncc6)nccc5[nH]4)c3n2)ccn1 [Compound 130, 5-(pyridin-4-yl)-3-(4-(pyridin-4-yl)-1H-imidazo[4,5-c]pyridin-2-yl)-1H-pyrazolo[4,3-b]pyridine] | > 10 | 7.5 | 0 | > 10 | 0.203 | –
Cc1cn(-c2nccc3[nH]c(-c4n[nH]c5ccc(-c6cncc(NC(=O)C(C)(C)C)c6)nc45)nc23)cn1 [Compound 204, N-(5-(3-(4-(4-Methyl-1H-imidazol-1-yl)-1H-imidazo[4,5-c]pyridin-2-yl)-1H-pyrazolo[4,3-b]pyridin-5-yl)pyridin-3-yl)pivalamide] | > 10 | 21 | 0 | > 10 | > 10 | 41.8
Fc1ccc(-c2nccc3[nH]c(-c4n[nH]c5ccc(-c6cncc(CN7CCCC7)c6)nc45)nc23)cc1 [Compound 42, 3-(4-(4-Fluorophenyl)-1H-imidazo[4,5-c]pyridin-2-yl)-5-(5-(pyrrolidin-1-ylmethyl)pyridin-3-yl)-1H-pyrazolo[4,3-b]pyridine] | > 10 | 28.2 | – | 9.56 | > 10 | 23.3
CC(C)(C)CC(=O)Nc1cncc(-c2ccc3[nH]nc(-c4nc5c(-c6ccccc6F)nccc5[nH]4)c3n2)c1 [Compound 72, N-(5-(3-(4-(2-fluorophenyl)-1H-imidazo[4,5-c]pyridin-2-yl)-1H-pyrazolo [4,3-b]pyridin-5-yl)pyridin-3-yl)-3,3-dimethylbutanamide] | > 10 | 8.1 | 4.1 | > 10 | > 10 | 26.1
CCCCC(=O)Nc1cncc(-c2ccc3[nH]nc(-c4nc5c(-c6ccccn6)nccc5[nH]4)c3n2)c1 [Compound 159, N-(5-(3-(4-(Pyridin-2-yl)-1H-imidazo[4,5-c]pyridin-2-yl)-1H-pyrazolo[4,3-b]pyridin-5-yl)pyridin-3-yl)pentanamide] | > 10 | 1.2 | 5.7 | > 10 | > 10 | 28.2
Fc1ccccc1-c1nccc2[nH]c(-c3n[nH]c4ccc(-c5ccccn5)nc34)nc12 [Compound 84, 3-(4-(2-Fluorophenyl)-1H-imidazo[4,5-c]pyridin-2-yl)-5-(pyridin-2-yl)-1H-pyrazolo[4,3-b]pyridine] | 0.384 | – | 0 | > 10 | > 10 | 27.2
NC1CN(c2cncc(-c3ccc4[nH]nc(-c5nc6c(-c7ccc(Cl)s7)nccc6[nH]5)c4n3)n2)C1 [Compound 1068, 1-(6-(3-(4-(5-Chlorothiophen-2-yl)-1H-imidazo[4,5-c]pyridin-2-yl)-1H-pyrazolo[4,3-b]pyridin-5-yl)pyrazin-2-yl)azetidin-3-amine] | 4.2 | – | 48.2 | > 10 | > 10 | 19.2
Cc1ccncc1-c1ccc2[nH]nc(-c3nc4c(-c5ccsc5)nccc4[nH]3)c2n1 [Compound 285, 5-(4-Methylpyridin-3-yl)-3-(4-(thiophen-3-yl)-1H-imidazo[4,5-c]pyridin-2-yl)-1H-pyrazolo[4,3-b]pyridine] | 0.206 | – | – | 0.638 | 1.33 | –
FC1(F)CCN(Cc2cncc(-c3ccc4[nH]nc(-c5nc6c(-c7ccsc7)nccc6[nH]5)c4n3)c2)C1 [Compound 306, 5-(5-((3,3-difluoropyrrolidin-1-yl)methyl)pyridin-3-yl)-3-(4-(thiophen-3-yl)-1H-imidazo[4,5-c]pyridin-2-yl)-1H-pyrazolo[4,3-b]pyridine] | 1.01 | – | – | 1.12 | 3.66 | –
CC(C)C(=O)Nc1cncc(-c2ccc3[nH]nc(-c4nc5c(N6CCN(C)CC6)nccc5[nH]4)c3n2)c1 [Compound 233, N-(5-(3-(4-(4-Methylpiperazin-1-yl)-1H-imidazo[4,5-c]pyridin-2-yl)-1H-pyrazolo[4,3-b]pyridin-5-yl)pyridin-3-yl)isobutyramide] | > 10 | 6.4 | 1.6 | > 10 | > 10 | 24
CN1CCN(c2nccc3[nH]c(-c4n[nH]c5ccc(-c6cncnc6)nc45)nc23)CC1 [Compound 251, 3-(4-(4-Methylpiperazin-1-yl)-1H-imidazo[4,5-c]pyridin-2-yl)-5-(pyrimidin-5-yl)-1H-pyrazolo[4,3-b]pyridine] | > 10 | 17.7 | 0 | > 10 | > 10 | 8.3
CCNCc1cncc(-c2ccc3[nH]nc(-c4nc5c(-c6ccoc6)nccc5[nH]4)c3n2)c1 [Compound 314, N-((5-(3-(4-(Furan-3-yl)-1H-imidazo[4,5-c]pyridin-2-yl)-1H-pyrazolo[4,3-b]pyridin-5-yl)pyridin-3-yl)methyl)ethanamine] | 3.47 | – | – | 0.684 | > 10 | 36
Nc1cncc(-c2ccc3[nH]nc(-c4nc5c(-c6ccccc6F)nccc5[nH]4)c3n2)c1 [Compound 59, 5-(3-(4-(2-Fluorophenyl)-1H-imidazo[4,5-c]pyridin-2-yl)-1H-pyrazolo[4,3-b]pyridin-5-yl)pyridin-3-amine] | > 10 | 27.7 | 0 | > 10 | > 10 | 30.6
CS(=O)(=O)NCc1cc(F)cc(-c2nccc3[nH]c(-c4n[nH]c5ccc(-c6cncc(NC(=O)CC7CCNCC7)c6)nc45)nc23)c1 [Compound 769, N-(5-(3-(4-(3-Fluoro-5-(methylsulfonamidomethyl)phenyl)-1H-imidazo[4,5-c]pyridin-2-yl)-1H-pyrazolo[4,3-b]pyridin-5-yl)pyridin-3-yl)-2-(piperidin-4-yl)acetamide] | > 10 | 9.8 | 7.7 | > 10 | > 10 | 33.4
O=C(Nc1cncc(-c2ccc3[nH]nc(-c4nc5cnccc5[nH]4)c3n2)c1)C1CCCCC1 [Compound 275, N-(5-(3-(1H-Imidazo[4,5-c]pyridin-2-yl)-1H-pyrazolo[4,3-b]pyridin-5-yl)pyridin-3-yl)cyclohexanecarboxamide] | > 10 | 0 | 0 | > 10 | > 10 | 31.5
Oc1cncc(-c2ccc3[nH]nc(-c4nc5cnccc5[nH]4)c3n2)c1 [Compound 661, 5-(3-(1H-Imidazo[4,5-c]pyridin-2-yl)-1H-pyrazolo[4,3-b]pyridin-5-yl) pyridin-3-ol] | > 10 | 10.7 | 13.5 | > 10 | > 10 | 31.3
O=C(Nc1cncc(-c2ccc3[nH]nc(-c4nc5c(-c6ccsc6)nccc5[nH]4)c3n2)c1)c1ccccc1 [Compound 291, N-(5-(3-(4-(Thiophen-3-yl)-1H-imidazo[4,5-c]pyridin-2-yl)-1H-pyrazolo [4,3-b]pyridin-5-yl)pyridin-3-yl)benzamide] | > 10 | 3.3 | 2 | > 10 | > 10 | 0
Cc1cn(-c2nccc3[nH]c(-c4n[nH]c5ccc(-c6cncc(CN7CCCC7)c6)nc45)nc23)cn1 [Compound 210, 3-(4-(4-Methyl-1H-imidazol-1-yl)-1H-imidazo[4,5-c]pyridin-2-yl)-5-(5-(pyrrolidin-1-ylmethyl)pyridin-3-yl)-1H-pyrazolo [4,3-b]pyridine] | > 10 | 5.5 | 7.2 | > 10 | > 10 | 24.5
O=C(Nc1cncc(-c2ccc3[nH]nc(-c4nc5c(-c6ccncc6)nccc5[nH]4)c3n2)c1)C1CCCCC1 [Compound 135, N-(5-(3-(4-(pyridin-4-yl)-1H-imidazo[4,5-c]pyridin-2-yl)-1H-pyrazolo[4,3-b]pyridin-5-yl)pyridin-3-yl)cyclohexanecarboxamide] | > 10 | 2.8 | 1 | > 10 | > 10 | 33.2
